Laboratory results published in US7247705B2, “Proteins having glucose transporter activity” (Takeda Pharmaceutical Company Limited, priority 2000, dated 2007).

How the values were obtained:
Assay type in all cases: cell-based
[1] = target: T1, human SGLT homolog (Homo sapiens, UniProt Q2M3M2, I269M); test: α-methyl glucose uptake in COS7 cells carrying pME18S-human-SGLT-homolog (pTB2193); conditions: NaCl + 100 μM or 1 mM phlorizin, one-hour incubation, FIG. 12
T1 construct: expressed in transfected cells
T1 sequence (Q2M3M2 8-681 I269M): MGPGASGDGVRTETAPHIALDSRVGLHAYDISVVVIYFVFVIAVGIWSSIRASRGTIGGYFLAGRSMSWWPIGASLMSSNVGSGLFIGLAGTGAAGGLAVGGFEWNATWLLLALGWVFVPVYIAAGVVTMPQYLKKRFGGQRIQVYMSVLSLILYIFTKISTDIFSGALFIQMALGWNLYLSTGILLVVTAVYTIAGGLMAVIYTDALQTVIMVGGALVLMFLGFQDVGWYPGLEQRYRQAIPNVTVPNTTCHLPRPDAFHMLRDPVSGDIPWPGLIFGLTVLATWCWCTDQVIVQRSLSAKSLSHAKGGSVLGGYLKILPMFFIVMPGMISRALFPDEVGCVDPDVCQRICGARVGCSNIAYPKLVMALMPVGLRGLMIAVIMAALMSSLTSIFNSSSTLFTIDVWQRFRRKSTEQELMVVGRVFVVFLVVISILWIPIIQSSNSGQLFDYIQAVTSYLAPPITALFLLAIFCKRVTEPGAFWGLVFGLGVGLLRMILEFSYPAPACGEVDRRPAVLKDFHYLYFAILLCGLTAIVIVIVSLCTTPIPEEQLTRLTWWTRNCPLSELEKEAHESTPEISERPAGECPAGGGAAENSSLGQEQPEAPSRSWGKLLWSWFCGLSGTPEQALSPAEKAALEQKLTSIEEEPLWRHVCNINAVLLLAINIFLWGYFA
Method: Each 1 μg of the expression vectors for animal cells: pME18S, pME18S-hSGLT2, pME18S-human-SGLT-homolog (pTB2193), pME18S-human-SGLT-homolog-SNP-C1 (pTB2251), pME18S-human-SGLT-homolog-SNP-C2 (pTB2252) and pME18S-human-SGLT-homolog-SNP-C3 (pTB2253), and 3 μl of FuGENE 6 (Roche) were added to Opti-MEM (Gibco-BRL) 100 μl for 15 min at room temperature. These mixtures were then added to COS7 cells (1×10^6 cells/1 ml of DMEM containing 10% FBS/well in 6-well plate) so that each gene was introduced into the cells.
Experimental incorporation of α-methyl glucose into the COS7 cells carrying pME 18S, pME18S-hSGLT2, pME 18S-human-SGLT-homolog (pTB2193), pME18S-human-SGLT-homolog-SNP-C 1 (pTB2251), pME18S-human-SGLT-homolog-SNP-C2 (pTB2252), and pME18S-human-SGLT-homolog-SNP-C3 (pTB2253) was carried out according to the method described in Am. J. Physiol. 270:G833-G843 (1996) and J. Clin. Invest. 93:397-404 (1994).
These gene-transfected cells were cultured for a day, and then plated on a 96-well plate in a cell density of 3×10^4 cells/well and in a volume of 100 μl of DMEM containing 10% FBS per well, and further cultured overnight at 37° C. […] The radioactivity of ^14C incorporated into the cells was counted with 100 μl of a liquid scintillator added per well.

[2] = tested on: rat SGLT homolog; test: α-methyl glucose uptake in COS7 cell expressing the rat SGLT homolog; conditions: COS7 cells, NaCl + 100 μM or 1 mM phlorizin, one-hour incubation, FIG. 9
Method: The cDNA of human SGLT1 (NCBI Accession NM_000343) was amplified by PCR from Clontech MTC panel kidney cDNA library, and subcloned into the expression vector for animal cells, pME18S between EcoRI and SpeI sites to prepare pME18S-hSGLT1. COS7 cells (5×10^5 cells) were transfected with each 1 μg of plasmids pME18S, pME18S-hSGLT1, and pME18S-rat-SGLT-homolog according to the FuGENE6 method (Roche).
(§1) Experimental incorporation of α-methyl glucose into the COS7 cell having pME18S, the COS7 cell expressing hSGLT1, and the COS7 cell expressing the rat SGLT homolog was carried out according to the method described in Am. J. Physiol. 270:G833-G843 (1996) and J. Clin. Invest. 93:397-404, 1994. These cells were plated on a 96-well plate in a cell density of 3×10^4 cells/well and in a volume of 100 μl of DMEM containing 10% FBS per well, and cultured overnight at 37° C. The cells were washed 3 times with 150 μl of a buffer solution (125 mM KCl, 1.2 mM KH2PO4, 2.5 mM CaCl2, 1.2 mM MgSO4, 4 mM Glutamine, 10 mM HEPES (pH 7.2), 0.1 mg/ml BSA), and cultured for an hour in the same buffer solution to remove the rest of glucose. […] The radioactivity of ^14C incorporated into the cells was counted with 100 μl of a liquid scintillator added per well.

[3] = target: T1, human SGLT homolog; test: α-methyl glucose uptake in CHO cell expressing the SGLT homolog; conditions: CHO cells, NaCl + 10 μM or 100 μM Phlorizin, one-hour incubation, FIG. 3
Method: Each cDNA of human SGLT1 (NCBI Accession NM_000343) and SGLT2 (NCBI Accession NM_003041) was amplified by PCR from Clontech MTC panel kidney cDNA library, and subcloned into the expression vector for animal cells, pME18S between EcoRI and SpeI sites to prepare pME18S-hSGLT1 and pME18S-hSGLT2. CHO cells (1×10^6 cells) were co-transfected with each 5 μg of plasmids pME18S, pMEI 8S-SGLT homolog, pMEI 8S-hSGLT1, and pME18S-hSGLT2, and the expression vector for animal cells, pRSVneo […] according to the LipofectAMINE PLUS method (GIBCOBRL). These cells were cultured in DMEM containing G418 (500 μg/ml) and 10% FBS for 2 weeks to select the drug-resistant clones.
Total RNAs were extracted from respective G418-resistant CHO cells using RNAeasy Mini Kit (Quiagen). The expression of the SGLT homolog, hSGLT1 and hSGLT2 was quantified using TaqMan Gold RT-PCR Kit (PE Biosystems) according to the TaqMan PCR method to select CHO cells expressing each gene.
Experimental incorporation of α-methyl glucose into the CHO cell expressing the SGLT homolog, the CHO cell expressing hSGLT1, the CHO cell expressing hSGLT2, and the CHO cell having pME18S was carried out according to the method described in Am. J. Physiol. 270:G833-G843 (1996) and J. Clin. Invest. 93:397-404, 1994. […] The radioactivity of ^14C incorporated into the cells was counted with 100 μl of a liquid scintillator added per well.

[4] = target: T2, mouse SGLT homolog (Mus musculus, UniProt Q8VDT1); test: α-methyl glucose uptake in COS7 cell expressing the mouse SGLT homolog; conditions: COS7 cells, NaCl + 100 μM or 1 mM phlorizin, one-hour incubation, FIG. 6
T2 construct: expressed in transfected cells; host or cells: COS7 cells, transient, FuGENE6
T2 sequence (Q8VDT1 8-685): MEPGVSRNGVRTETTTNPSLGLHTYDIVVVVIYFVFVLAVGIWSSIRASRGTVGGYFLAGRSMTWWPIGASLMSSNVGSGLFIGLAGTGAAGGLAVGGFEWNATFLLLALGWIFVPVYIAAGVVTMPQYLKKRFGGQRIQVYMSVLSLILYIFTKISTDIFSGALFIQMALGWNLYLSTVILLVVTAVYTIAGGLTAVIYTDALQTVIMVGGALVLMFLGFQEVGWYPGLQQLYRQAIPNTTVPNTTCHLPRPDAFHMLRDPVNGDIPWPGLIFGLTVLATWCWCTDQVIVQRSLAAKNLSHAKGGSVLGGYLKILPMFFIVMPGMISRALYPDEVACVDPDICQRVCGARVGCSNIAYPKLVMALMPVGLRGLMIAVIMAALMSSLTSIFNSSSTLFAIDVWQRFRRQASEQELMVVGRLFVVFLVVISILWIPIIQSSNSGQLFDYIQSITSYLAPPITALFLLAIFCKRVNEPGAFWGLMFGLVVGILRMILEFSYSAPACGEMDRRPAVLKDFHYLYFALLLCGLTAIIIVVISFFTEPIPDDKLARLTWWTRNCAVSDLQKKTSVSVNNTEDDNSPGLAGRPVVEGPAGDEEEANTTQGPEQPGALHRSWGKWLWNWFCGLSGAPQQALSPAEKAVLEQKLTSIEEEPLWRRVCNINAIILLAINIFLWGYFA
Method: The cDNA of human SGLT1 (NCBI Accession NM_000343) was amplified by PCR from Clontech MTC panel kidney cDNA library, and subcloned into the expression vector for animal cells, pME18S between EcoRI and SpeI sites to prepare pME18S-hSGLT1. COS7 cells (5×10^5 cells) were transfected with each 1 μg of plasmids pME18S, pME18S-hSGLT1, and pME18S-mouse-SGLT-homolog according to the FuGENE6 method (Roche).
as §1, with “having pMEI 8S,” for “having pME18S,”, “the mouse” for “the rat”, “Invest. 93:397-404,1994.” for “Invest. 93:397-404, 1994.”

O=C(CCc1ccc(O)cc1)c1c(O)cc(O)cc1O[C@@H]1O[C@H](CO)[C@@H](O)[C@H](O)[C@H]1O [phlorizin]
inhibited: inhibition of NaCl-dependent glucose uptake activity [1] | inhibition of Na+-dependent α-methyl glucose uptake activity [2] | inhibition of Na-dependent α-methyl glucose uptake activity [3] | inhibition of Na+-dependent α-methyl glucose uptake activity [4]
